Results on 11 compounds are retold here after patent publication US20060094698A1, “Self-administered contraceptive injection of oily solution” (priority 2002, published 2006).

Series [1] in a line: Solubility / appearance of solutions determined visually. The conditions noted are these: for solubility (visual) in all four tested solvents: desired concentration 50 mg/ml etonogestrel-undecanoate, 100 mg/ml MENT-undecanoate. As to the method: (§1) Using these solvents, the following solutions were prepared: • 100 mg/ml etonogestrel undecanoate in the different solvents • 50 mg/ml etonogestrel undecanoate in the different solvents • 200 mg/ml MENT undecanoate in the different solvents • 100 mg/ml MENT undecanoate in the different solvents • 50 mg/ml etonogestrel undecanoate+100 mg/ml MENT undecanoate in the different solvents
(§2) The solubility of the compounds in the solvents was determined visually. The viscosity was determined using a Brookfield model DV-III. The density of the solutions was determined using a Mettler Toledo DA-100M density meter.

Series [2] is described as follows: Viscosity, Brookfield model DV-III. The format is physicochemical. As to the method: as §1, §2
Series [3] in a line: Density, Mettler Toledo DA-100M density meter. The format is physicochemical. As to the method:
as §1, §2

Series [4] is described as follows: Pharmacokinetics of etonogestrel esters after one i.m. injection in the rabbit (plasma etonogestrel by LC-MSMS). In kind it is in vivo. The conditions noted are these: for peak levels of etonogestrel: one i.m. injection 20 mg/kg in arachis oil (40 mg/ml), rabbit plasma. The method, then: For the determination of the pharmacokinetic profile of the different etonogestrel-esters after parenteral application, i.m. application in the castrated rabbit model was chosen instead of s.c. Briefly, rabbits were injected once (day 1) with indicated etonogestrel-esters at 20 mg/kg in arachis oil (with a concentration of 40 mg/ml). At day 1, 2, 3, 4, 5, 6, 7, 8, 10, 12, 14, 21, 28, 35, 49, 63, 77, 92, 106, 120 and 133 blood was collected from the ear arteria, in EDTA-containing tubes. EDTA plasma was prepared (1500 g, 15 min) and stored at −20° C. With LC-MSMS, the amount of parent compound (etonogestrel) was determined in these samples. The lower limit of this new assay is 0.5 nmol/l, from 0-250 nmol/l a linear curve was obtained with a correlation coefficient of 0.9998.

The nature of series [5]: Pharmacokinetics of androgen esters after one s.c. injection in the castrated rabbit (plasma MENT or testosterone by LC-MSMS). The format is in vivo. The following applies: one s.c. injection 20 mg/kg in arachis oil (100 mg/ml). As to the method: For the determination of the pharmacokinetic profile of the different androgen-esters after s.c. application, the castrated rabbit model was selected as the model which is most similar to humans. Briefly, rabbits were injected once (day 1) with indicated androgen-esters at 20 mg/kg in arachis oil (with a concentration of 100 mg/ml). At day 2, 3, 4, 5, 8, 15, 22, 36, 44 and 58 blood was collected from the ear arteria, in EDTA-containing tubes. EDTA plasma was prepared (1500 g, 15 min) and stored at −20° C. With LC-MSMS, the amount of parent compound (testosterone or MENT) was determined in these samples. The lower limit of this new assay is 2 nmol/l, from 0-500 nmol/I a linear curve was obtained with a correlation coefficient of 0.9998.

The conditions of series [6]: one IM injection, hypogonadal men, FIG. 5 (Nieschlag and Behre 1997); cited from earlier work.
Setting [7] is: solvent arachis oil + 50% benzyl benzoate, etonogestrel undecanoate 50 mg/ml and/or MENT undecanoate 100 mg/ml.
Where [8] appears, read: solvent arachis oil, etonogestrel undecanoate 50 mg/ml and/or MENT undecanoate 100 mg/ml.
Setting [9] is: solvent ethyl undecanoate + 50% benzyl benzoate, etonogestrel undecanoate 50 mg/ml and/or MENT undecanoate 100 mg/ml.
Setting [10] is: solvent ethyl undecanoate, etonogestrel undecanoate 50 mg/ml and/or MENT undecanoate 100 mg/ml.
Where [11] appears, read: one i.m. injection 20 mg/kg in arachis oil, rabbit.

In the case of `CCCCCCCCCCC(=O)O[C@H]1CC[C@H]2[C@H]3[C@H](CC[C@]12C)[C@H]1CCC(=O)C=C1C[C@H]3C` [MENT-undecanoate], the “heating temperature necessary to dissolve” value in series [1] (200 mg/ml in arachis oil) is “approximately 50 °C”. In addition, in series [1], the “solubility (visual) in all four tested solvents” value was “could be dissolved at two times the desired concentration”. In addition, the Appearance result in series [1] (setting [7]) is reported as “Clear yellowish solution”; in series [1] (setting [8]) it was “Clear yellowish solution”; in series [1] (setting [9]), “Clear colourless solution”; in series [1] (setting [10]) it was “Clear colourless solution”. Moreover, the Viscosity is given as 35.0 cps in series [2] (setting [7]), 97.2 cps in series [2] (setting [8]), 6.1 cps in series [2] (setting [9]) and 4.0 cps in series [2] (setting [10]). The Density in series [3] (setting [7]) was 1.009 g/mL; in series [3] (setting [8]), 0.924 g/mL; in series [3] (setting [9]), 0.979 g/mL; in series [3] (setting [10]) it was 0.879 g/mL.
Consider `C#C[C@]1(OC(=O)CCCCCCCCCC)CC[C@H]2[C@@H]3CCC4=CC(=O)CC[C@@H]4[C@H]3C(=C)C[C@@]21CC` [etonogestrel undecanoate], for which the “peak levels of etonogestrel” value in series [4] came to 13 nmol/L. For the same compound, the “duration of action (etonogestrel levels above 1 nmol/l)” value in series [4] (setting [11]) is “more than 92 days”. For the same compound, the “solubility (visual) in all four tested solvents” value in series [1] is on record as “could be dissolved at two times the desired concentration”. Also, the Appearance entry in series [1] (setting [7]) is “Clear yellowish solution”; in series [1] (setting [8]), “Clear yellowish solution”; in series [1] (setting [9]), “Clear colourless solution”; in series [1] (setting [10]), “Clear colourless solution”. Moreover, the Viscosity in series [2] (setting [7]) was determined as 28.1 cps; in series [2] (setting [8]), 76.6 cps; in series [2] (setting [9]), 4.7 cps; in series [2] (setting [10]), 3.2 cps. For the same compound, the Density in series [3] (setting [7]) is 1.006 g/mL; in series [3] (setting [8]) it was 0.919 g/mL; in series [3] (setting [9]), 0.978 g/mL; in series [3] (setting [10]) it was 0.870 g/mL.
On to `CCCCCCC(=O)O[C@H]1CC[C@H]2[C@@H]3CCC4=CC(=O)CC[C@]4(C)[C@H]3CC[C@]12C` [Testosterone enanthate, testosterone enanthate], for which the “pharmacokinetic profile of released MENT or testosterone” value in series [5] was “high peak of testosterone”.
`C#C[C@]1(OC(=O)CCCCCCCC)CC[C@H]2[C@@H]3CCC4=CC(=O)CC[C@@H]4[C@H]3C(=C)C[C@@]21CC` [Etonogestrel-nonanoate]: the “peak levels of etonogestrel” value in series [4] is listed as “lower peak levels”. In addition, the “duration of action (etonogestrel levels above 1 nmol/l)” value in series [4] (setting [11]) is recorded as “extended duration”.
As for `CCCCCCCCCCC(=O)O[C@H]1CC[C@H]2[C@@H]3CCC4=CC(=O)CC[C@]4(C)[C@H]3CC[C@]12C` [testosterone undecanoate], the “pharmacokinetics of serum testosterone in humans” value in series [6] was “low initial release and steady-state levels of long duration”.
With `C#CC1(OC(=O)CCCCCCCCC)CCC2C3CCC4=CC(=O)CCC4C3C(=C)CC21CC` (centres unmarked) [etonogestrel decanoate], the “peak levels of etonogestrel” value in series [4] was 24 nmol/L. Further, in series [4] (setting [11]), the “time of initial peak level of etonogestrel” value is recorded as 5 days.
As for `C#C[C@]1(OC(=O)CCCCCCCCCCCC)CC[C@H]2[C@@H]3CCC4=CC(=O)CC[C@@H]4[C@H]3C(=C)C[C@@]21CC` [etonogestrel tridecanoate], the “peak levels of etonogestrel” value in series [4] is “no initial levels of etonogestrel were observed”.
On to `C#C[C@]1(O)CC[C@H]2[C@@H]3CCC4=CC(=O)CC[C@@H]4[C@H]3C(=C)C[C@@]21CC` [etonogestrel, (17α)-13-ethyl-17-hydroxy-11-methylene-18,19-dinorpregn-4-en-20-yn-3-one, reference compound], for which the “peak levels of etonogestrel” value in series [4] was 200 nmol/L. The “time in which etonogestrel levels declined to below 1 nmol/l” value in series [4] (setting [11]) stood at 28 days.
For `C#C[C@]1(OC(=O)CCCCCCCCCCC)CC[C@H]2[C@@H]3CCC4=CC(=O)CC[C@@H]4[C@H]3C(=C)C[C@@]21CC` [etonogestrel dodecanoate], the “peak levels of etonogestrel” value in series [4] amounted to 9 nmol/L. Further, in series [4] (setting [11]), the “time of initial peak level of etonogestrel” value stood at 8 days.
With `CCCCCCCCCCC(=O)OCC` [Ethyl undecanoate], the Appearance entry in series [1] (solvent alone) is recorded as “Clear colourless solution”. This compound also had a Viscosity in series [2] (solvent alone) of 2.6. The compound further had a Density in series [3] (solvent alone) of 0.861.
For `C#C[C@]1(OC(=O)CCCCCC)CC[C@H]2[C@@H]3CCC4=CC(=O)CC[C@@H]4[C@H]3C(=C)C[C@@]21CC` [Etonogestrel-heptanoate], the “peak levels of etonogestrel” value in series [4] is 120 nmol/L.
